Reference: ChEMBL document CHEMBL1136068 (Bioorg Med Chem Lett, 2003)
One block for each compound: values may come before it. Activity calls are given as the source filed them. The rule behind the calls is not given here.

Columns and labels:
Androgen receptor [1] = biological target: T1, Androgen receptor (Homo sapiens, UniProt P10275)
T1 sequence (P10275 whole entry): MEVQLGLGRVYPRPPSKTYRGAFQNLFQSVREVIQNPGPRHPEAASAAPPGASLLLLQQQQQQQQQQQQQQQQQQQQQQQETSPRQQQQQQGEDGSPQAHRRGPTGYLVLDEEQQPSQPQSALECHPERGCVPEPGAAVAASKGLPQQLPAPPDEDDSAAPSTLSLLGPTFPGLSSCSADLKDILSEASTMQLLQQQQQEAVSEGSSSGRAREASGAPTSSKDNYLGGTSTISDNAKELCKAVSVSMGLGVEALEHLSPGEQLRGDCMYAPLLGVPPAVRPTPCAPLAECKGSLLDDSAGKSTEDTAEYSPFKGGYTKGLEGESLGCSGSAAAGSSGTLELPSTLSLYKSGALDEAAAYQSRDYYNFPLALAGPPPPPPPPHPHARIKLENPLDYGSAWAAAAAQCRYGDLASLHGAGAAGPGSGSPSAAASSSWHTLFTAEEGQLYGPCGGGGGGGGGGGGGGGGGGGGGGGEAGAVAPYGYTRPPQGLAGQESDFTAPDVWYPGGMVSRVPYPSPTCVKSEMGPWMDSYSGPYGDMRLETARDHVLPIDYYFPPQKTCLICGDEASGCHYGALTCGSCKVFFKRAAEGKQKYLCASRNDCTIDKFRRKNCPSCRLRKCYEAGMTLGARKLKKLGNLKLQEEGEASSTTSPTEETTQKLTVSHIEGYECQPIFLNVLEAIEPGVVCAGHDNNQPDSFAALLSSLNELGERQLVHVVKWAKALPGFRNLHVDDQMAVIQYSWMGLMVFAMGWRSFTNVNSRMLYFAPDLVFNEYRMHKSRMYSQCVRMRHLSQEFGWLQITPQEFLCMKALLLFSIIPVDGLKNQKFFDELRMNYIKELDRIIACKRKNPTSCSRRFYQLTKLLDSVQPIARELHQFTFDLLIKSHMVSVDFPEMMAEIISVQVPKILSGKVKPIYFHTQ
Description: Antagonist activity against Androgen receptor

Glucocorticoid receptor [2] = biological target: T2, Glucocorticoid receptor (Homo sapiens, UniProt P04150)
T2 sequence (P04150 whole entry): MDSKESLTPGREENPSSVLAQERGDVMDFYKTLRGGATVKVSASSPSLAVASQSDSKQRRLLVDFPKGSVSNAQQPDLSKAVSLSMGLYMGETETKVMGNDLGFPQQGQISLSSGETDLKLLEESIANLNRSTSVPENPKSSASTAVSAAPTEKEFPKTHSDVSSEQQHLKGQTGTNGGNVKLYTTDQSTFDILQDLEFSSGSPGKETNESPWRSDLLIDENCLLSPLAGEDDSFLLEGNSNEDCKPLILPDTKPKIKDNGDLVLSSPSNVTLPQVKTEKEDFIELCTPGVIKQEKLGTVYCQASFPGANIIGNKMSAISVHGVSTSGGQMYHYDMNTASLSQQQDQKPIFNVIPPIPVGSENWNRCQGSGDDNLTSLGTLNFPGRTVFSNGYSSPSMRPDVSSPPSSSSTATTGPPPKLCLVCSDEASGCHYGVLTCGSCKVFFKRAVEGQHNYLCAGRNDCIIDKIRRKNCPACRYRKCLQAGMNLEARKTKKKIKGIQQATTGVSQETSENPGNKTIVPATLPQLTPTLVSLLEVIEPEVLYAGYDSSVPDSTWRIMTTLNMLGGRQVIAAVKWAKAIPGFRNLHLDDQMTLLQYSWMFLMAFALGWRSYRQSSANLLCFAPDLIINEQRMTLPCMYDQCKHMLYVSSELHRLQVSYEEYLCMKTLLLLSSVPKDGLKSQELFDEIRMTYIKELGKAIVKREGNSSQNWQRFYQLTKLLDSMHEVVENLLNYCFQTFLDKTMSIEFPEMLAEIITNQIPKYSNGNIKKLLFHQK

Estrogen receptor [3] = biological target: T3, Estrogen receptor (Homo sapiens, UniProt Q92731+P03372); assay: Antagonist activity at estrogen (hER) receptor; Efficacy <20% and/or potency >[…] nM; format: functional
Androgen receptor [4] = biological target: T1, Androgen receptor; assay: Antagonist activity against human Androgen receptor; format: functional
[5] = biological target: T4, Mineralocorticoid receptor (Homo sapiens) (UniProt P08235); assay: Antagonist activity at mineralocorticoid receptor (hMR); Efficacy <20% and/or potency >[…] nM; format: functional
T4 sequence (whole entry): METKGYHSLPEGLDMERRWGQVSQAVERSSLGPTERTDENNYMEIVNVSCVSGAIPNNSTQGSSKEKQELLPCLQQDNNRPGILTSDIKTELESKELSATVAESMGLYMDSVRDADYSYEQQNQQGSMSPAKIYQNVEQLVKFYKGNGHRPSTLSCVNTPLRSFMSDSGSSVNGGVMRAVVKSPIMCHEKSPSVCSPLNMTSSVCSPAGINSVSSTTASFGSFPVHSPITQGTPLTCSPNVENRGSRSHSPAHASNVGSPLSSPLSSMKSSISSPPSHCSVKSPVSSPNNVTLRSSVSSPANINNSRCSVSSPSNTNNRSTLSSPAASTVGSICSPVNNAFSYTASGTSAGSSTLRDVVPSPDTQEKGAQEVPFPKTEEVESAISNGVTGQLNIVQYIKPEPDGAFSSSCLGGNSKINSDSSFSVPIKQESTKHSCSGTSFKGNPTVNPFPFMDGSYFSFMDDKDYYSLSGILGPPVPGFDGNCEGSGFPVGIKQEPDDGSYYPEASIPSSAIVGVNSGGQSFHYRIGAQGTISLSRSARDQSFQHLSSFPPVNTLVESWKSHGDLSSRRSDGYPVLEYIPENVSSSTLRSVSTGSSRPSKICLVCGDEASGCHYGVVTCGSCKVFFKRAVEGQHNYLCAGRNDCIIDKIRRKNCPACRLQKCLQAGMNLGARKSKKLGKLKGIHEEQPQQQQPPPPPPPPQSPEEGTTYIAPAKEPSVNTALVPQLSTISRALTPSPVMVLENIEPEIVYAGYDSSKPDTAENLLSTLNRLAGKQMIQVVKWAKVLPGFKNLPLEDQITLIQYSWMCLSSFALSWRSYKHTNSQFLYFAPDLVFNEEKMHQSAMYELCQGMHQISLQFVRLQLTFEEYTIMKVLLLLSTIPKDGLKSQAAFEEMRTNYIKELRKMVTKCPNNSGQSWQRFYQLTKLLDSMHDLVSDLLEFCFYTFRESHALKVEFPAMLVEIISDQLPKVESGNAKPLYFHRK

[6] = biological target: T4, Mineralocorticoid receptor (Homo sapiens); assay: Antagonist efficacy at mineralocorticoid receptor (hMR); Efficacy <20% and/or potency >[…] nM; format: functional
Estrogen receptor [7] = biological target: T3, Estrogen receptor; assay: Antagonist efficacy with Estrogen receptor; Efficacy <20% and/or potency >[…] nM; format: functional
Glucocorticoid receptor [8] = biological target: T2, Glucocorticoid receptor; assay: Antagonist activity at glucocorticoid receptor; format: functional
[9] = biological target: T5, Glucocorticoid receptor (Homo sapiens) (UniProt P04150); assay: Antagonist efficacy at glucocorticoid (hGR) receptor; format: functional
T5 sequence (whole entry): T2 sequence (P04150 whole entry)

[10] = biological target: T6, Androgen receptor (Homo sapiens) (UniProt P10275); assay: Antagonist efficacy at human androgen (hAR) receptor; not active; format: functional
T6 sequence (whole entry): T1 sequence (P10275 whole entry)

SMILES: CC1=CC(C)(C)Nc2ccc3c(c21)/C(=C/Br)Oc1ccc(F)cc1-3
- IC50 (Androgen receptor [1]): 250 nM
- IC50 (Glucocorticoid receptor [2]): > 1000 nM

- Efficacy (Estrogen receptor [3]): inactive
- IC50 (Androgen receptor [4]): 250 nM
- Efficacy [5]: inactive
- Efficacy [6]: inactive
- Efficacy (Estrogen receptor [7]): inactive
- IC50 (Glucocorticoid receptor [8]): 324 nM
SMILES: CC/C(C)=C1\Oc2ccc(F)cc2-c2ccc3c(c21)C(C)=CC(C)(C)N3

- Efficacy [9]: 157%
- IC50 (Androgen receptor [1]): 6.1 nM
SMILES: CC(=O)C[C@]1(C(C)=O)CC[C@H]2C3C[C@H](C)C4=CC(=O)CC[C@]4(C)[C@H]3CC[C@@]21C (stereo partly specified)

- Efficacy [10]: < 20%
SMILES: CC(C)=C/C=C1\Oc2ccc(F)cc2-c2ccc3c(c21)C(C)=CC(C)(C)N3
